We go through 58 molecules from patent US10590086B2, “Pharmaceutical compound” (IOmet Pharma Ltd., priority 2014, dated 2020).

In one assay the target is IDO (Homo sapiens, UniProt P14902). Briefly: SKOV3 kynurenine cell-based assay (IDO induced by IFN-γ). Set-up: IDO expression was induced in the SKOV3 cells by the addition of 500 ng/ml IFN-γ; endogenous in cells; host or cells: SKOV3 (human ovarian adenocarcinoma), induced with IFN-γ. The settings on record: SKOV3 human ovarian adenocarcinoma cells, 500 ng/ml IFN-γ, 48 hours, 500 μM L-tryptophan; read-out: SKOV3 Kynurenine cell based assay pIC50 (converted). In outline: (§1)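 Readout: […] of cell supernatant 5 min after Erhlich's reagent, reporting kynurenine. Cells: A172 (TDO) or SKOV3 + 500 ng/ml IFN-γ (IDO), 48 h, 37° C, ± compound. Medium: phenol red-free RPMI, 10% FCS, 2 mM L-glutamine, 500 μM L-tryptophan.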

The target of the next assay is TDO (Homo sapiens, UniProt P48775). Briefly: A172 kynurenine cell-based assay. Also on record: This assay utilised cancer cells which expressed either TDO or IDO; endogenous in cells; host or cells: A172 (human glioblastoma). The settings on record: A172 human glioblastoma cells, 48 hours, 500 μM L-tryptophan; read-out: A172 Kynurenine cell based assay pIC50 (converted). In outline: as §1

SMILES strings stand for the structures.

TDO, sequence (P48775 whole entry): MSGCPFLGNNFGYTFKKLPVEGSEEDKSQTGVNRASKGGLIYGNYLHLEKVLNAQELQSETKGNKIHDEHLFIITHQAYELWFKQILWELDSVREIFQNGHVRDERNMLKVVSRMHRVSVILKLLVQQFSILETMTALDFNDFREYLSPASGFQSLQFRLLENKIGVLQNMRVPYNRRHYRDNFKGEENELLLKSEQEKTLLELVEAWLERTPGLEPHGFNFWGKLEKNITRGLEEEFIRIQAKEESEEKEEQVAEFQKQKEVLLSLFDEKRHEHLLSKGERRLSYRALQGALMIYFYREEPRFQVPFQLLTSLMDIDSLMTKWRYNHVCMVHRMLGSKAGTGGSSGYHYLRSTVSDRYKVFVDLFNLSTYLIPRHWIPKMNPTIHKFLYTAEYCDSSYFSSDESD
IDO, sequence (P14902 whole entry): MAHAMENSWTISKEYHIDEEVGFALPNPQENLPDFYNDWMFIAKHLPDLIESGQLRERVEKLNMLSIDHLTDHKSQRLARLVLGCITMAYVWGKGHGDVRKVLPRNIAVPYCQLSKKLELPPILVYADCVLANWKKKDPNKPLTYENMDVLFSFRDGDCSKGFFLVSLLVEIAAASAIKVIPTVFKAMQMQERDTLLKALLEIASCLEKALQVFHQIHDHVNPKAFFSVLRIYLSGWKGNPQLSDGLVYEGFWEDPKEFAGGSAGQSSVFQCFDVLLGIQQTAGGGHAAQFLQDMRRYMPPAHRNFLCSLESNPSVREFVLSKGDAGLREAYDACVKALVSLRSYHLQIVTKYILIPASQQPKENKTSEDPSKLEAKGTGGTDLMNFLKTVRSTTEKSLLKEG

For `CS(=O)(=O)N1CCN(c2cc(C(F)(F)F)cc3[nH]ncc23)c2ccccc21` [Compound 186], the results for the IC50 at IDO and at TDO were 3.24 to 31.6 µM and > 100 µM, respectively.

On to `CC(=O)N1CCCN(c2cccc3[nH]ncc23)CC1` [Compound 58], for which the IC50 at IDO was > 100 µM; at TDO it was 3.24 to 31.6 µM.

Consider `OCCOc1cc(Cl)cc2[nH]ncc12` [Compound 85], for which the IC50 at IDO was 32.4 to 100 µM; at TDO, 3.24 to 31.6 µM.

Take `O=C(C1CC1)N1CCN(c2cc(Cl)cc3[nH]ncc23)CC1` [Compound 107]: the IC50 at IDO is 3.24 to 31.6 µM; at TDO it was < 3.16 µM.

For `CCC1CN(c2cc(Cl)cc3[nH]ncc23)CCN1S(C)(=O)=O` (centres unmarked) [Compound 83], the values for the IC50 at IDO and on TDO were 3.24 to 31.6 µM and < 3.16 µM, respectively.

Regarding `CCCS(=O)(=O)N1CCN(c2cc(Cl)cc3[nH]ncc23)CC1` [Compound 63], the IC50 at IDO was 3.24 to 31.6 µM; at TDO, < 3.16 µM.

With `O=C(C1COC1)N1CCC(c2cc(Cl)cc3[nH]ncc23)CC1` [Compound 205], the IC50 at IDO is > 100 µM; on TDO it was < 3.16 µM.

On to `CNS(=O)(=O)N1CCN(c2cc(Cl)cc3[nH]ncc23)CC1` [Compound 114], for which the IC50 is 3.24 to 31.6 µM at IDO and < 3.16 µM on TDO.

`CNS(=O)(=O)N1CCN(c2cccc3[nH]ncc23)CC1` [Compound 24]: the IC50 at IDO is 32.4 to 100 µM; on TDO, 3.24 to 31.6 µM.

In the case of `O=C(C1CC1)N1CCC(c2cc(Cl)cc3[nH]ncc23)CC1` [Compound 165], the figures for the IC50 on IDO and on TDO were 32.4 to 100 µM and < 3.16 µM, respectively.

As to `CC(=O)N1CCC(c2cc(C3CC3)cc3[nH]ncc23)CC1` [Compound 86], the IC50 at IDO and on TDO was 3.24 to 31.6 µM each time.

For `CN(C1CCN(c2cc(Cl)cc3[nH]ncc23)CC1)S(C)(=O)=O` [Compound 117], the values for the IC50 at IDO and at TDO were 3.24 to 31.6 µM and < 3.16 µM, respectively.

`NS(=O)(=O)N1CCC(c2cc(Cl)cc3[nH]ncc23)CC1` [Compound 174]: the IC50 is 3.24 to 31.6 µM at IDO and < 3.16 µM at TDO.

On to `CS(=O)(=O)NC1CCN(c2cc(Cl)cc3[nH]ncc23)C1` (centres unmarked) [Compound 193], for which the results for the IC50 on IDO and at TDO were 3.24 to 31.6 µM and < 3.16 µM, respectively.

Turning to `CS(=O)(=O)N1CCN(c2cc(Cl)cc3[nH]ncc23)c2ccccc21` [Compound 151], the IC50 on IDO was 3.24 to 31.6 µM; on TDO, > 100 µM.

For `Cc1ccc(C2CCN(S(C)(=O)=O)CC2)c2cn[nH]c12` [Compound 39], the IC50 was 32.4 to 100 µM at IDO and > 100 µM on TDO.

Regarding `CC(=O)N1CCN(c2cc(C3CC3)cc3[nH]ncc23)CC1(C)C` [Compound 126], the IC50 at IDO was 3.24 to 31.6 µM; at TDO it was < 3.16 µM.

As to `CS(=O)(=O)N1CCC(O)(c2cc(Cl)cc3[nH]ncc23)CC1` [Compound 123], the IC50 on IDO was 3.24 to 31.6 µM; on TDO, < 3.16 µM.

On to `O=S(=O)(CC(F)(F)F)N1CCN(c2cccc3[nH]ncc23)CC1` [Compound 18], for which the IC50 on IDO was > 100 µM; on TDO it was 32.4 to 100 µM.

On to `CS(=O)(=O)N1CCC(c2cc(N3CCOCC3)cc3[nH]ncc23)CC1` [Compound 206], for which the IC50 on IDO is > 100 µM; at TDO, 3.24 to 31.6 µM.

In the case of `CS(=O)(=O)N1CCN(c2cc(C3CCCC3)cc3[nH]ncc23)CC1` [Compound 131], the IC50 at IDO was 32.4 to 100 µM; on TDO it was > 100 µM.

With `CC(=O)N1CCN(c2cc(Cl)cc3[nH]ncc23)CC1(C)C` [Compound 46], the IC50 on IDO and on TDO was < 3.16 µM throughout.

With `Cc1n[nH]c2cc(Cl)cc(N3CCN(S(C)(=O)=O)CC3)c12` [Compound 66], the IC50 at IDO and on TDO was 3.24 to 31.6 µM each time.

In the case of `CS(=O)(=O)N1CCN(c2cc(Cl)cc3[nH]ncc23)CC12CCC2` [Compound 181], the IC50 on IDO and on TDO was < 3.16 µM each time.

Take `CC(C)c1cc(N2CCN(S(C)(=O)=O)C(C)(C)C2)c2cn[nH]c2c1` [Compound 145]: the IC50 on IDO was 3.24 to 31.6 µM; on TDO, < 3.16 µM.

With `CCCS(=O)(=O)N1CCC(c2cc(Cl)cc3[nH]ncc23)CC1` [Compound 140], the IC50 on IDO was 3.24 to 31.6 µM; at TDO it was < 3.16 µM.

As for `CN1CC2CN(c3cccc4[nH]ncc34)CCN2C1=O` (centres unmarked) [Compound 47], the IC50 at IDO is > 100 µM; at TDO, 3.24 to 31.6 µM.

Regarding `CS(=O)(=O)N1CCC(c2ccc(Cl)c3[nH]ncc23)CC1` [Compound 42], the IC50 was 3.24 to 31.6 µM on IDO and 32.4 to 100 µM at TDO.

In the case of `CS(=O)(=O)c1ccc(Nc2cc(Cl)cc3[nH]ncc23)cc1` [Compound 180], the IC50 on IDO is 32.4 to 100 µM; at TDO it was 3.24 to 31.6 µM.

For `CNC(=O)N1CCN(c2cc(Cl)cc3[nH]ncc23)CC1` [Compound 80], the IC50 at IDO was 3.24 to 31.6 µM; at TDO it was < 3.16 µM.

In the case of `CC(=O)N1CC2CC1CN2c1cc(Cl)cc2[nH]ncc12` (centres unmarked) [Compound 201], the IC50 on IDO is 32.4 to 100 µM; at TDO, 3.24 to 31.6 µM.

For `CS(=O)(=O)N1CCN(c2cc(-c3ncco3)cc3[nH]ncc23)CC1` [Compound 157], the values for the IC50 on IDO and on TDO were 32.4 to 100 µM and > 100 µM, respectively.

For `CC(=O)N1CCN(c2cc(C(C)C)cc3[nH]ncc23)CC1(C)C` [Compound 147], the IC50 on IDO and at TDO was 3.24 to 31.6 µM throughout.

On to `CC(=O)N1CCN(c2cc(C3CC3)cc3[nH]ncc23)CC1` [Compound 121], for which the values for the IC50 at IDO and on TDO were > 100 µM and 3.24 to 31.6 µM, respectively.

`O=S(=O)(C1CC1)N1CCC(c2cc(Cl)cc3[nH]ncc23)CC1` [Compound 188]: the results for the IC50 on IDO and on TDO were 3.24 to 31.6 µM and < 3.16 µM, respectively.

For `O=S(=O)(c1ccccc1)N1CCC(c2cc(Cl)cc3[nH]ncc23)CC1` [Compound 138], the figures for the IC50 at IDO and on TDO were 3.24 to 31.6 µM and < 3.16 µM, respectively.

In the case of `CN1C(=O)NC(=O)C12CCN(c1cc(Cl)cc3[nH]ncc13)CC2` [Compound 184], the IC50 at IDO was 3.24 to 31.6 µM; on TDO, < 3.16 µM.

For `CC(=O)N1CCC(c2cc(C(F)(F)F)cc3[nH]ncc23)CC1(C)C` (centres unmarked) [Compound 133], the IC50 on IDO and on TDO was < 3.16 µM each time.

Consider `CN1C(=O)NC2(CCN(c3cc(Cl)cc4[nH]ncc34)CC2)C1=O` [Compound 144], for which the IC50 on IDO and at TDO was < 3.16 µM throughout.

Regarding `O=S(=O)(C1CCCC1)N1CCC(c2cc(Cl)cc3[nH]ncc23)CC1` [Compound 143], the IC50 at IDO is 3.24 to 31.6 µM; on TDO, < 3.16 µM.

As to `CC(O)c1cc(Cl)cc2[nH]ncc12` (centres unmarked) [Compound 153], the IC50 at IDO was 32.4 to 100 µM; at TDO, < 3.16 µM.

`CC(=O)N1CCN(c2cccc3[nH]ncc23)CC1C` (centres unmarked) [Compound 27]: the results for the IC50 at IDO and on TDO were 32.4 to 100 µM and 3.24 to 31.6 µM, respectively.

For the molecule `CN(C)S(=O)(=O)N1CCN(c2cc(Cl)cc3[nH]ncc23)CC1` [Compound 119], the figures for the IC50 at IDO and on TDO were 3.24 to 31.6 µM and < 3.16 µM, respectively.

With `CS(=O)(=O)N1CCN(c2cc(C3CC3)cc3[nH]ncc23)CC1` [Compound 101], the IC50 is > 100 µM at IDO and 3.24 to 31.6 µM on TDO.

Turning to `CN(C)C(=O)N1CCN(c2cc(Cl)cc3[nH]ncc23)CC1` [Compound 82], the IC50 is 3.24 to 31.6 µM at IDO and < 3.16 µM at TDO.

With `CS(=O)(=O)N1CC=C(c2cc(Cl)cc3[nH]ncc23)CC1` [Compound 77], the IC50 on IDO is 3.24 to 31.6 µM; at TDO, < 3.16 µM.

As to `CCC1CN(c2cc(Cl)cc3[nH]ncc23)CCN1C(C)=O` (centres unmarked) [Compound 84], the IC50 on IDO was 3.24 to 31.6 µM; at TDO, < 3.16 µM.

Turning to `CC(=O)N1[C@H](C)CN(c2cc(Cl)cc3[nH]ncc23)C[C@H]1C` [Compound 103], the IC50 was > 100 µM at IDO and < 3.16 µM at TDO.

`CC(O)C(=O)N1CCC(c2cc(Cl)cc3[nH]ncc23)CC1` (centres unmarked) [Compound 177]: the values for the IC50 on IDO and at TDO were 3.24 to 31.6 µM and < 3.16 µM, respectively.

Take `CCCS(=O)(=O)N1CCN(c2cccc3[nH]ncc23)CC1` [Compound 16]: the IC50 at IDO is 32.4 to 100 µM; at TDO, 3.24 to 31.6 µM.

On to `CS(=O)(=O)N1CCC(Nc2cccc3[nH]ncc23)CC1` [Compound 75], for which the IC50 is > 100 µM on IDO and 32.4 to 100 µM at TDO.

As for `CC(=O)N1CCN(c2cc(C(C)C)cc3[nH]ncc23)CC1` [Compound 68], the results for the IC50 on IDO and on TDO were > 100 µM and 3.24 to 31.6 µM, respectively.

As to `CC(C)C(=O)N1CCC(c2cc(Cl)cc3[nH]ncc23)CC1` [Compound 166], the IC50 on IDO is 32.4 to 100 µM; at TDO it was < 3.16 µM.

Regarding `c1ccc(CCNc2cccc3[nH]ncc23)cc1` [Compound 50], the IC50 at IDO and at TDO was 32.4 to 100 µM in each case.

With `CS(=O)(=O)N1CCN(c2cc(C#N)cc3[nH]ncc23)CC1` [Compound 194], the IC50 at IDO and at TDO was 3.24 to 31.6 µM each time.

As for `NC(=O)N1CCC(c2cc(Cl)cc3[nH]ncc23)CC1` [Compound 168], the IC50 at IDO is 3.24 to 31.6 µM; at TDO it was < 3.16 µM.

Consider `COCC(=O)N1CCN(c2cc(Cl)cc3[nH]ncc23)CC1` [Compound 112], for which the IC50 at IDO was 3.24 to 31.6 µM; on TDO, < 3.16 µM.

On to `OCCNc1cc(Cl)cc2[nH]ncc12` [Compound 142], for which the IC50 was > 100 µM on IDO and 3.24 to 31.6 µM on TDO.
